Source: US8222242B2, “Nitric oxide releasing compounds” (The Regents of the University of California, priority 2008, dated 2012)

How the values were obtained:
D. melanogaster = assay: Nitrite and nitrate in extracts of injected flies; assay type: in vivo, Drosophila melanogaster; details: 1 μl of 1 mM NO-Cbi injected
Protocol: Nitrite and nitrate in extracts of NO-Cbi-injected flies were measured, and, as in the studies with CS-54 cells, a little over 50% of the injected NO as nitrite and nitrate was recovered (FIG. 3c). The nitrite/nitrate levels reached a maximum at 1 hour, and returned to that of water-injected flies at 4-5 hours (FIG. 3c). […] Nitrite and nitrate excretion likely explained the only partial recovery of NO.

isolated mouse hearts = assay: Coronary flow in isolated perfused mouse hearts (Langendorff)
Protocol: Hearts and aortas were removed from NIH Swiss mice anesthetized with sodium nembutal, and coronary flow was measured in the hearts using a Langendorff preparation (FIG. 5a) and relaxation of aortic rings was measured after inducing constriction of the rings with prostaglandin F2α (FIG. 5b). The hearts and aortic rings were treated with a range of concentrations of NO-Cbi (filled circles), nitroglycerin (open circles, dotted line, FIG. 5a), and sodium nitroprusside (open circles, FIG. 5b). Coronary flow was measured on the same hearts for both NO-Cbi and nitroglycerin after an appropriate wash-out period between drugs, and aortic ring relaxation was measured on two rings from the same aorta for NO-Cbi and sodium nitroprusside. The data are the mean of two independent experiments performed on two separate hearts in each experiment (FIG. 5a), and the mean±SEM of two independent experiments performed on three separate aortic rings in each experiment (FIG. 5b).
Coronary flow was measured in isolated perfused mouse hearts in a Langendorff system, and was 10.8±0.5 ml/min/g wet weight (n=7 hearts) under basal conditions. […] The latter value is similar to maximal coronary flow of 24.6±1.8 ml/min/g wet weight obtained with 62 μM adenosine. For nitroglycerin to increase coronary flow to that of NO-Cbi, the nitroglycerin concentration had to be increased to 770 μM, or about 100-fold greater than the NO-Cbi concentration (FIG. 5a).

New Zealand white rabbit = assay: Oral (nasogastric) NO-Cbi and rabbit blood pressure; assay type: in vivo
Protocol: An anesthetized New Zealand white rabbit was given NO-Cbi via a nasogastric tube at 10 and 100 (0.32 and 3.2 mg/kg) (FIG. 10a) or 10 and 50 (0.32 and 1.6 mg/kg) (FIG. 10b) times the dose used intravenously. Blood pressure was monitored continuously by an intra-arterial catheter, and was recorded every 5 minutes. The blood pressure was allowed to stabilize for 10 minutes prior to administering NO-Cbi.

## CC1=C2[N+]3=C(C=C4[N+]5=C(C(C)=C6[N]7C(C(CC(N)=O)C6(C)CCC(=O)NCC(C)O)C6(C)[N+](=C1C(CCC(N)=O)C6(C)CC(N)=O)[Co-3]753[N]=O)C(CCC(N)=O)C4(C)C)C(CCC(N)=O)C2(C)CC(N)=O (stereo not shown) [NO-Cbi, nitrosyl cobinamide]
D. melanogaster
  injected NO recovered as nitrite and nitrate: over 50%
  time of maximum nitrite/nitrate levels: 1 h
  time of return of nitrite/nitrate levels to that of water-injected flies: 4 to 5 h
Isolated mouse hearts
  low concentration that significantly increased coronary flow: 20 nM
Isolated mouse hearts; 7 μM infused
  coronary flow: 22.8±1.2 ml/min/g wet weight
  increase of coronary flow: more than two-fold
New Zealand white rabbit; 3.2 or 1.6 mg/kg via nasogastric tube
  blood pressure on the higher dose: steeper decrease
New Zealand white rabbit; low dose (0.32 mg/kg) via nasogastric tube
  time until blood pressure began to decrease: ≤ 10 min
New Zealand white rabbit; via nasogastric tube
  blood pressure after 100 or 180 minutes: remained lower than baseline
  duration of effect after each dose: at least 40 minutes
